Assay results published in US7355074B2, “Compounds having aromatic rings and side-chain amide-functionality and a method for transporting monovalent anions across biological membranes using the same” (The University of Maryland, priority 2003, dated 2008).

Assay: 35Cl NMR transport assay
Format: biochemical
Conditions: vesicles with NaCl and Co2+ inside, Co2+-free Na2SO4 buffer outside; 2 mol %
Description: FIG. 2A illustrates ^35Cl NMR spectra of a suspension of giant vesicles (29 mM EYPC, 100 mM NaCl, 10 mM CoCl2, 10 mM NanH3-nPO4, n=1, 2 pH 5.3) suspended in 75 mM […] buffer (NanH3-nPO4, n=1, 2, pH spectra correspond to a) giant vesicles in the absence of 3, b) giant vesicles after application of 2 mol % 3 in DMSO, c) vesicles after lysis with Triton X-100.
Liposome Preparation for ^35Cl NMR Assays. Egg yolk L-α-phosphatidylcholine (1.0 mg/mL EYPC ethanol solution, 250 μL, […]) was dissolved in a CHCl3/MeOH mixture, the solution was evaporated under reduced pressure and the resulting thin film was dried under high vacuum for 2.5 h. The lipid film was hydrated in 1.0 mL of phosphate buffer (9:1 H2O:D2O, 10 mM sodium phosphate, pH=5.4, 100 mM NaCl) containing 10 mM CoCl2 (^35Cl shift reagent) for 40 min. During hydration, the suspension was submitted to 5 freeze-thaw cycles (liquid nitrogen, water at rt). The giant liposome suspension (1 mL) was submitted to high-pressure extrusion at rt (41 passes through a 5.0 μm polycarbonate membrane). […]
^35Cl NMR Measurements. All ^35Cl NMR spectra were recorded on a Bruker DRX500 instrument operating at 49.0023 MHz for the ^35Cl resonance and chemical shift values are reported in ppm relative to 25 mM NaCl in D2O at 0 ppm (external standard). […]

CCCCNC(=O)COc1ccccc1Cc1cccc(Cc2ccccc2OCC(=O)NCCCC)c1OCC(=O)NCCCC [trimer 3, Tris-(N-butyl-2-phenoxyacetamide)]
outward Cl− transport (35Cl NMR signal): enhancement of the extravesicular Cl^− peak
